How the values were obtained:
[1] = tested on: MKN-45 gastric carcinoma cells; assay: Induction of apoptosis in MKN-45 gastric carcinoma cells (percentages of apoptotic cells); assay type: cell-based, human; conditions: for synergistic interaction with salicylic acid in the induction of apoptosis: 6 hours (FIGS. 22-25); for dependence of the induction of apoptosis on singlet oxygen: 2 mM histidine (singlet oxygen scavenger)
Protocol: 12 500 MKN-45 cells in 100 μl (duplicate batches) were treated with the given concentrations of salicylic acid or remained free from salicylic acid. After 10 minutes the given concentrations of cyanidine were added.
12 500 MKN-45 cells in 100 μl (duplicate batches) were treated with 0.1 μg/ml salicylic acid or remained free from salicylic acid (control). […] After 6.5 hours the percentages of apoptotic cells were determined in duplicate batches.
12 500 MKN-45 cells in 100 μl (duplicate batches) either received no additive (control), 2 mM of the singlet oxygen scavenger histidine or 25 μM Caspase-8 inhibitor. […] After another 15 minutes cyanidine was added in the given concentrations. After 6.5 hours of incubation at 37° C. the percentages of apoptotic cells were determined.
12 500 MKN-45 cells in 100 μl (duplicate batches) either received no additive (control), 2 mM of the singlet oxygen scavenger histidine or 25 μM Caspase-8 inhibitor. […] After 6.5 hours incubation at 37° C. the percentage of apoptotic cells was determined. […]
12 500 MKN-45 cells in 100 μl medium were incubated with increasing concentrations of the given active ingredients, in the presence or absence of 0.1 μg/ml salicylic acid for 6 hours and then, the percentages of the apoptotic cells were determined (repeated determination).

Gumbus lymphoma cells = assay: Induction of apoptosis in Gumbus lymphoma cells (percentages of apoptotic cells); assay type: cell-based, human; conditions: Gumbus cells
Protocol: 12 500 MKN-45 gastric carcinoma cells (A) or 25 000 Gumbus lymphoma cells (B) in 100 μl complete medium each either remained untreated (control) or received 2 mM histidine (singlet oxygen scavenger), 50 mM taurine (HOCl scavenger), or 2.4 mM L-NAME (NOS inhibitor). In Experiment A, additionally 10 mM mannitol (hydroxyl radical scavenger), 150 μM ABH (peroxidase inhibitor), 100 U/ml MnSOD (superoxide anion scavenger) and 25 μM FeTPPS (peroxynitrite decomposer) were used. Subsequently, the given concentrations of salicylic acid were added. After 5 hours (A) and 4 hours, respectively, of incubation at 37° C. the percentages of apoptotic cells were determined in duplicate batches according to the classical apoptosis features nuclear condensation, nuclear fragmentation, and membrane blebbing. Here, at least 200 cells were evaluated pre batch. […] Inhibitors: singlet oxygen scavenger histidine 2 mM; HOCl scavenger taurine 50 mM, NOS inhibitor L-NAME 2.4 mM, peroxidase inhibitor ABH 150 μM.

tumor cell catalase = molecular target: T1, tumor cell catalase (Homo sapiens, UniProt P04040); assay: Catalase inhibition/inactivation in MKN-45 cells by challenge with exogenous peroxynitrite, NO donor or glucose oxidase; assay type: cell-based; parameters: endogenous in cells; host or cells: MKN-45 gastric carcinoma cells; conditions: 200 μM peroxynitrite
T1 sequence (P04040 2-527 limits assumed): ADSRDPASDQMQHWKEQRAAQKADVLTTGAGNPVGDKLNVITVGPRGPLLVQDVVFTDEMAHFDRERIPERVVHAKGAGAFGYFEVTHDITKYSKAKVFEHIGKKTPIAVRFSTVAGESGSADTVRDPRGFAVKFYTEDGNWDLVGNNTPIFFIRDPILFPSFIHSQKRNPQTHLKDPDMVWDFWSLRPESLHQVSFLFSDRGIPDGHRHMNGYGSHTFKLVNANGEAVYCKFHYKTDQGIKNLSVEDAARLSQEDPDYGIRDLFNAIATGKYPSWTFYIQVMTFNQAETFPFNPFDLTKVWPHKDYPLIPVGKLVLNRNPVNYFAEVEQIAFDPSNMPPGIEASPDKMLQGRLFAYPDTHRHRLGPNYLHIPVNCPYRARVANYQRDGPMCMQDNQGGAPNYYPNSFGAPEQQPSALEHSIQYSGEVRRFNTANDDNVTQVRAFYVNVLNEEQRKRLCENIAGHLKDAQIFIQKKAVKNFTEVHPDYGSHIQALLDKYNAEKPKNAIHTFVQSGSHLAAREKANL
Protocol: Direct catalase inhibition with relevance to the induction of apoptosis in tumor cells can be determined by pre-incubating tumor cells at first in the presence of the singlet oxygen scavenger histidine (2 mM) with the substance to be tested in increasing concentration (between 10 and 30 minutes at 37° C.) and subsequently adding peroxynitrite in the concentration range between 10 and 200 μM. The tumor cells are protected from the apoptosis-triggering effect of peroxynitrite by their membranous catalase. An inhibition of the catalase partially or completely cancels this protection and in the presence of peroxynitrite leads to the induction of apoptosis. The presence of 2 mM histidine ensures that the measured induction of apoptosis is not a singlet oxygen-mediated inactivation of the catalase by destruction of its active center. Alternatively, instead of addition of histidine inhibition of the NADPH oxidase by 100 μM AEBSF may take place. With prevented superoxide anion production also no singlet oxygen formation in the test system is possible.
4000 MKN-45 cells per 100 μl in […] were treated with increasing concentrations of monoclonal antibodies against catalase “Anti-KAT” or Anti-EGFR. After 15 minutes either 200 μM peroxynitrite (“PON”), 0.5 mM DEA-NONOate (rapidly decomposing NO donor), or 2 mU/ml glucose oxidase (GOX) that continuously generates hydrogen peroxide were added. After another two hours at 37° C. the percentages of apoptotic cells were determined in duplicate batches.
The principle of identification is based on the fact that tumor cells (here MKN-45 gastric carcinoma cells) are protected from the apoptosis-triggering effect of exogenously added peroxynitrite by their membranous catalase. Addition of catalase inhibitors sensitizes the cells to the effect of exogenous peroxynitrite.
The experiment was performed in analogy to that described in FIG. 9 except that instead of Anti-KAT a monoclonal antibody against SOD was used. The cells were tested in two different densities, namely 4000 and 12 500 cells per 100 μl. The challenge to test the activity of catalase was carried out with 200 μM peroxynitrite, or 0.5 mM DEA NONOate or 2 mU/ml GOX.
Subsequently, 200 μM or no peroxynitrite was added. After 1.5 hours the percentages of apoptotic cells were determined in duplicate batches.
Subsequently, 200 μM or no peroxynitrite was added. After 1 hour the percentages of apoptotic cells were determined in duplicate batches.
12 500 MKN-45 cells in 100 μl medium received 100 μM AEBSF or no additive. After 15 minutes the given concentrations of cyanidine were added and the batches were incubated for 15 minutes at 37° C. Subsequently, 200 μM peroxynitrite (PON) were added or the batches were not treated with peroxynitrite (control). After 1 hour the percentages of apoptotic cells were determined in duplicate batches.
12 500 MKN-45 cells received no addition (control), or 2 mM histidine, or 100 μM AEBSF or 2.4 mM L-NAME immediately before the addition of the given concentrations of salicylic acid (“0 min”) or 20 minutes after addition of salicyl. 20 minutes after the addition of salicylic acid 200 μM peroxynitrite (PON) were added to all batches except the control batches. After another 2 hours the percentages of apoptotic cells were determined in duplicates.

[2] = 0.1 μg/ml salicylic acid, MKN-45

For `CCCCCCCCCCCCCCCC(=O)O` [palmitic acid], the “synergistic interaction with salicylic acid in the induction of apoptosis” value (shortened to “synergistic interaction”) [1, 2] was “synergistically reacts”.
`N=C(NO)NCC[C@H](N)C(=O)O` [NOR-NOHA] was tested, and the “synergistic interaction” value [1, 2] was “synergistically reacts”.
In the case of `COc1cc(O)c(CC=C(C)C)c2c1C(=O)CC(c1ccc(O)cc1)O2` (centres unmarked) [isoxanthohumol], the “synergistic interaction” value [1, 2] is reported as “synergistically reacts”.
In the case of `CC(=O)O[C@H]1C(=O)[C@@]2(C)[C@H]([C@H](OC(=O)c3ccccc3)[C@]3(O)C[C@H](OC(=O)[C@H](O)[C@@H](NC(=O)c4ccccc4)c4ccccc4)C(C)=C1C3(C)C)[C@]1(OC(C)=O)CO[C@@H]1C[C@@H]2O` [taxol], the “concentration up to which a necessary involvement of Caspase-8 can be seen” value ([1]; alone, 25 μM Caspase-8 inhibitor, MKN-45, 6.5 hours (FIG. 19)) is reported as “up to 370 ng/ml”, the “dependence of the induction of apoptosis on singlet oxygen” value ([1]; substance alone, MKN-45) is reported as “depends on singlet oxygen” and the “dependence of the induction of apoptosis on singlet oxygen” value (Gumbus lymphoma cells; 2 mM histidine (singlet oxygen scavenger)) is reported as “caused by a fast singlet oxygen-dependent step that inactivates catalase within the first hour”. The “ROS signal path of the induced apoptosis (inhibitor profile)” value (Gumbus lymphoma cells; L-NAME, taurine, ABH) was “at low concentrations of taxol is via the NO/peroxynitrite path, at higher concentrations via the HOCl path” and the “synergistic effect with salicylic acid on catalase inactivation” value (tumor cell catalase; 6.25 ng/ml salicylic acid, MKN-45, 1.5 hours (FIG. 21)) was “synergistic effect on the catalase inactivation”.
For `C=CCN=C=S` [allylisothiocyanate], the “synergistic interaction” value [1, 2] was “synergistically reacts”.
`COc1cc(O)c(CC=C(C)C)c(O)c1C(=O)/C=C/c1ccc(O)cc1` [xanthohumol] was tested, and the “synergistic interaction” value [1, 2] was “synergistically reacts”.
For `C=CCSSCC=C` [diallyldisulfide], the “synergistic interaction” value [1, 2] was “synergistically reacts”.
`O=C1O[C@H]([C@@H](O)CO)C(O)=C1O` [ascorbic acid] was tested, and the “synergism with cyanidine in the induction of apoptosis” value [1] was “Synergism is achieved”, the “synergism with taxol in the induction of apoptosis” value [1] was “Synergism is achieved” and the “inhibition of tumor cell catalase (sensitization to exogenous peroxynitrite)” value (tumor cell catalase; MKN-45) was “directly inhibit catalase”.
In the case of `Oc1cc(O)c2cc(O)c(-c3ccc(O)c(O)c3)[o+]c2c1.[Cl-]` [cyanidine, cyanidine chloride], the “induction of apoptosis, substance alone at the concentration of the combination” value ([1]; 0.15 ng/ml cyanidine alone, 0.08 μg/ml salicylic acid alone, MKN-45 (FIG. 16)) is reported as “remained ineffective”, the “induction of apoptosis by the combination with salicylic acid” value ([1]; 0.15 ng/ml cyanidine with 0.08 μg/ml salicylic acid, MKN-45 (FIG. 16)) is reported as “maximum induction of apoptosis” and the “dependence of the synergistic effect with salicylic acid on Caspase-8” value ([1]; 0.1 μg/ml salicylic acid, 25 μM Caspase-8 inhibitor, MKN-45, 6.5 hours (FIGS. 18, 19)) is reported as “independent of Caspase-8”. For the same compound, the “dependence of the synergistic effect with salicylic acid on singlet oxygen” value ([1]; 0.1 μg/ml salicylic acid, 2 mM histidine, MKN-45, 6.5 hours (FIGS. 18, 19)) was “also based on the effect of singlet oxygen”, the “synergistic effect with salicylic acid in the induction of apoptosis” value ([1]; 0.1 μg/ml salicylic acid, MKN-45, 6.5 hours (FIG. 17)) was “remarkable synergistic effect” and the EC50 ([1]; Homo sapiens, applied alone, MKN-45, 6 hours (FIG. 16), read-out: concentration at half-maximum value of induction of apoptosis) was roughly 0.02 mg/L. The “concentration at optimum of induction of apoptosis” value ([1]; applied alone, MKN-45, 6 hours (FIG. 16)) was 0.3 µg/mL, the “synergistic effect with salicylic acid in the induction of apoptosis” value ([1]; given concentrations of salicylic acid, MKN-45, 6 hours (FIG. 16)) was “considerable synergistic effect” and the “dependence of the induction of apoptosis on Caspase-8” value ([1]; substance alone, 25 μM Caspase-8 inhibitor, MKN-45) was “depends on the activity of dead receptors (such as FAS) and the thus activated Caspase-8”. For the same compound, the “dependence of the induction of apoptosis on singlet oxygen” value ([1]; substance alone, MKN-45) was “depends on singlet oxygen”, the induction of apoptosis ([1]; substance alone, 12 500 MKN-45 cells in 100 μl, 4-6.5 hours at 37° C.) was “concentration-dependent induction of apoptosis” and the “catalase inhibition / sensitization to peroxynitrite with inhibited superoxide anion synthesis” value (tumor cell catalase; 100 μM AEBSF, MKN-45) was “do not exhibit sensitivity for peroxynitrite”. For the same compound, the “inhibition of tumor cell catalase (sensitization to exogenous peroxynitrite)” value (tumor cell catalase; MKN-45) was “leads to a sensitization to peroxynitrite” and the “requirement of singlet oxygen, superoxide anions and NO for catalase inhibition/inactivation” value (tumor cell catalase; 2 mM histidine, 100 μM AEBSF or 2.4 mM L-NAME, MKN-45 (FIGS. 14, 15)) was “requires singlet oxygen, superoxide anions and NO”.
For `C[C@@H]1CC[C@H]2[C@@H](C)C(=O)O[C@@H]3O[C@@]4(C)CC[C@@H]1[C@]32OO4` [artemisinin], the “synergistic interaction” value [1, 2] was “synergistically reacts”.
With `O=c1c(O)c(-c2ccc(O)c(O)c2)oc2cc(O)cc(O)c12` [quercetin] the “synergistic interaction” value [1, 2] was “synergistically reacts”.
For `N=C(N)NCCC[C@H](N)C(=O)O` [arginine], the “synergistic interaction” value [1, 2] was “synergistically reacts”.
`C=CCSCC=C` [diallylsulfide] was tested, and the “synergistic interaction” value [1, 2] was “not”.

Source: patent US9801832B2, “Pharmaceutical composition having synergistic action of direct catalase inhibitors and modulators of no metabolism or of extracellular superoxide anion production which lead to catalase destruction” (Universitaetsklinikum Freiburg, priority 2012, dated 2017)
